Results filed as inconclusive are left out. The source made the active and inactive calls.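 The calls were made as follows: active = sample lowering the cell viability signal whose fitted half-effect dose is at or below its top tested dose; inconclusive = flat fit with 30 to 70 percent loss, or poor fit; inactive = the rest, including effects in the wrong direction.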
Tested on: not listed separately
Assay: HEK293 cell cytotoxicity, dose response, cytotoxicity control, ATP luminescence, dry powder, Set6 (AID 743142)
Details: HEK293T viability, ATP luminescence (CellTiter-Glo), 72 h; at 12 µM (top of the series)
With CC(NC(=O)CCNC(=O)c1ccc(Cl)cc1)c1ccc(F)cc1 (stereo unspecified) the activity change, negative = cytotoxicity was 41.6% (inactive).

Same assay, conditions: HEK293T viability, ATP luminescence (CellTiter-Glo), 72 h; at 26 µM (top of the series)
In the case of O=C(NC1CCc2ccccc21)C1CCCN(C(=O)c2ccc(Cl)cc2)C1 (stereo unspecified), the activity change, negative = cytotoxicity is reported as -34.8% (inactive).
For O=C(NC1CCOc2ccccc21)C1CCCN(C(=O)c2ccc(Cl)cc2)C1 (stereo unspecified), the activity change, negative = cytotoxicity was -5.89% (inactive).
With O=C(CCCNC(=O)c1ccc(C(F)(F)F)cc1)N[C@@H]1CCCc2ccccc21 the activity change, negative = cytotoxicity was 49.1% (inactive).
In the case of CC(NC(=O)CCNC(=O)c1ccc(Cl)cc1)c1ccc2c(c1)OCO2 (stereo unspecified), the activity change, negative = cytotoxicity is reported as 21.1% (inactive).
In the case of O=C(CCCNC(=O)c1ccc(OC(F)(F)F)cc1)N[C@@H]1CCCc2ccccc21, the activity change, negative = cytotoxicity is reported as 48.5% (inactive).
With COc1ccccc1C(C)NC(=O)CCNC(=O)c1ccc(Cl)cc1 (stereo unspecified) the activity change, negative = cytotoxicity was -9.14% (inactive).
In the case of O=C(CCCNC(=O)c1ccc(Cl)c(Cl)c1)N[C@@H]1CCCc2ccccc21, the activity change, negative = cytotoxicity is reported as 8.38% (inactive).
In the case of O=C(CCNC(=O)c1ccccc1)N[C@@H]1CCCc2ccccc21, the activity change, negative = cytotoxicity is reported as -39.6% (inactive).
In the case of O=C(CNC(=O)c1ccc(OC(F)(F)F)cc1)N[C@@H]1CCCc2ccccc21, the activity change, negative = cytotoxicity is reported as 1.28% (inactive).
In the case of CC(C)(C)OC(=O)NCCC(=O)N[C@H]1CCCc2ccccc21, the activity change, negative = cytotoxicity is reported as -17.3% (inactive).
In the case of CC(NC(=O)C1CCCN(C(=O)c2ccc(Cl)cc2)C1)c1ccccc1 (stereo unspecified), the activity change, negative = cytotoxicity is reported as 64.4% (inactive).
In the case of O=C(CNC(=O)c1ccc(C(F)(F)F)cc1)N[C@@H]1CCCc2ccccc21, the activity change, negative = cytotoxicity is reported as -8.54% (inactive).
With CN(C(=O)CCNC(=O)c1ccc(F)cc1F)C1CCCc2ccccc21 (stereo unspecified) the activity change, negative = cytotoxicity was 7.5% (inactive).
In the case of CC(c1ccccc1)N(C)C(=O)CCNC(=O)c1ccc(Cl)cc1 (stereo unspecified), the activity change, negative = cytotoxicity is reported as -5.44% (inactive).
In the case of COc1ccccc1C(=O)NCCC(=O)NC1CCCc2ccccc21 (stereo unspecified), the activity change, negative = cytotoxicity is reported as -2.09% (inactive).
With O=C(CNC(=O)c1ccc(Cl)cc1)N[C@@H]1CCCc2ccccc21 the activity change, negative = cytotoxicity was -4.76% (inactive).
In the case of NCCC(=O)N[C@@H]1CCCc2ccccc21, the activity change, negative = cytotoxicity is reported as 27.3% (inactive).
In the case of CC(=O)NCCC(=O)N[C@@H]1CCCc2ccccc21, the activity change, negative = cytotoxicity is reported as 10.6% (inactive).
For O=C(CCNC(=O)c1ccc(Cl)cc1)N[C@H]1CCCc2ccccc21, the activity change, negative = cytotoxicity was -23.6% (inactive).
In the case of O=C(CCNC(=O)c1ccccc1Cl)NC1CCCc2ccccc21 (stereo unspecified), the activity change, negative = cytotoxicity is reported as 10.9% (inactive).
With CC(CC(=O)N(C)C1CCCc2ccccc21)NC(=O)c1ccccc1 (stereo unspecified) the activity change, negative = cytotoxicity was -30% (inactive).
In the case of C[C@@H](NC(=O)CCNC(=O)c1ccc(Cl)cc1)c1ccccc1, the activity change, negative = cytotoxicity is reported as 19.9% (inactive).
With CC(CC(=O)NC1CCCc2ccccc21)NC(=O)c1ccccc1 (stereo unspecified) the activity change, negative = cytotoxicity was -38.5% (inactive).
For O=C(CCNC(=O)c1ccc(Cl)cc1)NC1CCCCC1, the activity change, negative = cytotoxicity was 13% (inactive).
With Cc1cccc(C(=O)NCCC(=O)NC2CCCc3ccccc32)c1 (stereo unspecified) the activity change, negative = cytotoxicity was -15.8% (inactive).
In the case of COc1cc(C(=O)NCCC(=O)NC2CCCc3ccccc32)cc(OC)c1OC (stereo unspecified), the activity change, negative = cytotoxicity is reported as -40.5% (inactive).
With O=C(CCCNC(=O)c1ccc(Cl)cc1)N[C@@H]1CCCc2ccccc21 the activity change, negative = cytotoxicity was 2.4% (inactive).
In the case of O=C(CNC(=O)c1ccc(Cl)c(Cl)c1)N[C@@H]1CCCc2ccccc21, the activity change, negative = cytotoxicity is reported as -24.4% (inactive).
For CC(C)(C)OC(=O)NCCC(=O)N[C@@H]1CCCc2ccccc21, the activity change, negative = cytotoxicity was -2.95% (inactive).

Tested on: HEK293T viability, ATP luminescence (CellTiter-Glo), 72 h
Assay: as above
Details: not given
Work on O=C(CCNC(=O)c1ccc(Cl)cc1)NC1CCCc2ccccc21 (stereo unspecified) yielded an AC50 of 7.73 µM.
